Results from patent publication US7005443B1, “5-Hydroxy indazole derivatives for treating glaucoma” (priority 2000, dated 2006).
Where two headings read alike, the source gives them in different places.

What was measured:
5HT2 receptor = target: T1, 5HT2 receptor (Rattus norvegicus, UniProt P14842); test: 5HT2 Functional Assay: Phosphoinositide (PI) turnover assay; assay type: cell-based; conditions: for Emax: A7R5, read-out: Efficacy (Emax, %)
T1 construct: A7r5 rat vascular smooth muscle cells; endogenous in cells; host or cells: A7r5 rat vascular smooth muscle cells
T1 sequence (P14842 whole entry): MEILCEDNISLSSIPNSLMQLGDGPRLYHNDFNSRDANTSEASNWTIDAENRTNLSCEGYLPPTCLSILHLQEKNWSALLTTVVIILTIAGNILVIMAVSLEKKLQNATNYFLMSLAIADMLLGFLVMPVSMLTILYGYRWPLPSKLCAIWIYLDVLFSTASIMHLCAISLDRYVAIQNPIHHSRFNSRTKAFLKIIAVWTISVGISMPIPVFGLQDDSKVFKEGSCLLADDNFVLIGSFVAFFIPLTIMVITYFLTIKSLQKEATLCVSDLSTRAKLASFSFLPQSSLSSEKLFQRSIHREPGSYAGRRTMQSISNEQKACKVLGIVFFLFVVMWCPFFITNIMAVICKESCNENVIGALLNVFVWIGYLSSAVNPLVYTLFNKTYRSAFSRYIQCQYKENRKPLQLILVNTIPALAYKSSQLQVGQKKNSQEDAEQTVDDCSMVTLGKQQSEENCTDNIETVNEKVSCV
Description: 5HT2 Functional Assay: Phosphoinositide (PI) turnover assay
The relative agonist activity of serotonergic compounds at the 5HT2 receptor can be determined in vitro using the ability of the compounds to stimulate the production of [^3H]inositol phosphates in [^3H]myo-inositol-labeled A7r5 rat vascular smooth muscle cells by their ability to activate the enzyme phospholipase C. These cells are grown in culture plates, maintained in a humidified atmosphere of 5% CO2 and 95% air and fed semi-weekly with Dulbecco's modified Eagle medium (DMEM) containing 4.5 g/l glucose and supplemented with 2 mM glutamine, 10 μg/ml gentamicin, and 10% fetal bovine serum. For the purpose of conducting the phosphoinositide (PI) turnover experiments, the A7r5 cells are cultured in 24-well plates as previously [J. Pharmacol. Expt. Ther., 286, 411 (1998)]. Confluent cells are exposed for 24–30 hrs to 1.5 μCi [^3H]-myo-inositol (18.3 Ci/mmol) in 0.5 ml of serum-free medium. Cells are then rinsed once with DMEM/F-12 containing 10 mM LiCl prior to incubation with the test agent (or solvent as the control) in 1.0 ml of the same medium for 1 hr at 37° C., after which the medium is aspirated and 1 ml of cold 0.1 M formic acid added to stop the reaction. The chromatographic separation of [^3H]-inositol phosphates ([^3H]-IPs) on an AG- 1-X8 column is performed as previously described [J. Pharmacol. Expt. Ther. 286, 411 (1998)] with sequential washes with H2O and 50 mM ammonium formate, followed by elution of the total [^3H]-IPs fraction with 1.2 M ammonium formate containing 0.1 M formic acid. The eluate (4 ml) is collected, mixed with 15 ml scintillation fluid, and the total [3H]-IPs determined by scintillation counting on a beta-counter. Concentration-response data are analyzed by the sigmoidal fit function of the Origin Scientific Graphics software (Microcal Software, Northampton, Mass.) to determine agonist potency (EC50 value) and efficacy (Emax). Serotonin (5HT) is used as a positive control (standard) agonist compound and the efficacy of test compounds is compared to that of 5HT (set at 100%). The concentration of the compound needed to stimulate the production of […] by 50% of the maximum response is termed the EC50 value.

SMILES	EC50 (5HT2 receptor)	Emax (5HT2 receptor)	melting point	EC50 (5HT2 receptor; [3H]inositol phosphate production in A7r5 rat vascular smooth muscle cells, read-out: EC50)
CC(N)Cc1nn(C)c2ccc(O)cc12.O=C(O)/C=C/C(=O)O (stereo not drawn) [3-(2-Aminopropyl)-1-methyl-1H-indazol-5-ol fumarate]	778 nM	98%	136 to 139 °C	–
CC(N)Cc1n[nH]c2ccc(O)cc12.Cl (stereo not drawn) [3-(2-Aminopropyl)-1H-indazol-5-ol hydrochloride]	–	97%	227 to 230 °C	1210 nM
